Measured values as given in the supplement of paper PMC10307832.

Assays:
Assay in all cases: relative viability (nuclei count vs DMSO), 5 days (fraction); higher = more cells survive
Metformin + Olaparib = compound: CN(C)C(=N)NC(=N)N [Metformin] + O=C(c1cc(Cc2n[nH]c(=O)c3ccccc23)ccc1F)N1CCN(C(=O)C2CC2)CC1 [Olaparib] (partner 8 µM)
Procedure, shortened: (§1)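 Lung cancer cell lines were pin-tool dosed in 1536-well plates on the day after seeding, with either a lone drug or a fixed anchor-drug dose plus five library-drug doses (not always all listed) in √10 steps. Nuclei were counted on 4× images after 5 days. Relative viability is the ratio of treated-well to vehicle-well nuclei counts, with each value a median of duplicate plates.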

Metformin + Bortezomib = compound: CN(C)C(=N)NC(=N)N [Metformin] + CC(C)C[C@H](NC(=O)[C@H](Cc1ccccc1)NC(=O)c1cnccn1)B(O)O [Bortezomib] (partner 0.002 µM)
Procedure, shortened: as §1

Metformin + Lapatinib = compound: CN(C)C(=N)NC(=N)N [Metformin] + CS(=O)(=O)CCNCc1ccc(-c2ccc3ncnc(Nc4ccc(OCc5cccc(F)c5)c(Cl)c4)c3c2)o1 [Lapatinib] (partner 2 µM)
Procedure, shortened: as §1

Metformin + Tozasertib = compound: CN(C)C(=N)NC(=N)N [Metformin] + Cc1cc(Nc2cc(N3CCN(C)CC3)nc(Sc3ccc(NC(=O)C4CC4)cc3)n2)n[nH]1 [Tozasertib] (partner 0.1 µM)
Procedure, shortened: as §1

| Cell Line | relative viability (Metformin + Olaparib; first compound 10 µM) | relative viability (Metformin + Olaparib; first compound 31.62 µM) | relative viability (Metformin + Olaparib; first compound 100 µM) | relative viability (Metformin + Olaparib; first compound 316.23 µM) | relative viability (Metformin + Olaparib; first compound 1000 µM) | relative viability (Metformin + Bortezomib; first compound 10 µM) | relative viability (Metformin + Bortezomib; first compound 31.62 µM) | relative viability (Metformin + Bortezomib; first compound 100 µM) | relative viability (Metformin + Bortezomib; first compound 316.23 µM) | relative viability (Metformin + Bortezomib; first compound 1000 µM) | relative viability (Metformin + Lapatinib; first compound 10 µM) | relative viability (Metformin + Lapatinib; first compound 31.62 µM) | relative viability (Metformin + Lapatinib; first compound 100 µM) | relative viability (Metformin + Lapatinib; first compound 316.23 µM) | relative viability (Metformin + Lapatinib; first compound 1000 µM) | relative viability (Metformin + Tozasertib; first compound 10 µM) | relative viability (Metformin + Tozasertib; first compound 31.62 µM) | relative viability (Metformin + Tozasertib; first compound 100 µM) | relative viability (Metformin + Tozasertib; first compound 316.23 µM) | relative viability (Metformin + Tozasertib; first compound 1000 µM) |
| --- | --- | --- | --- | --- | --- | --- | --- | --- | --- | --- | --- | --- | --- | --- | --- | --- | --- | --- | --- | --- |
| EBC-1 | 0.68 | 0.733 | 0.73 | 0.728 | 0.721 | 0.699 | 0.666 | 0.618 | 0.541 | 0.59 | 0.182 | 0.181 | 0.23 | 0.281 | 0.248 | – | – | – | – | – |
| SK-MES-1 | 0.305 | 0.352 | 0.406 | 0.381 | 0.363 | – | – | – | – | – | 0.452 | 0.488 | 0.516 | 0.463 | 0.485 | 0.624 | 0.693 | 0.75 | 0.662 | 0.771 |
| ChaGo-K-1 | 0.341 | 0.343 | 0.319 | 0.26 | 0.33 | 1.03 | 1.03 | 0.993 | 0.972 | 0.628 | – | – | – | – | – | 0.254 | 0.281 | 0.246 | 0.202 | 0.22 |
| NCI-H1648 | – | 1.14 | 0.502 | 1.07 | 1.04 | – | – | – | – | – | – | – | – | – | – | 0.474 | 0.656 | 0.859 | 0.706 | 0.742 |
| NCI-H1395 | 0.386 | 0.428 | 0.455 | 0.42 | 0.417 | – | – | – | – | – | 1.11 | 1.25 | 1.36 | 0.963 | 0.576 | 0.727 | 0.752 | 0.867 | 0.83 | 0.738 |
